One experiment has as its system TNF-α. Put plainly: TNF-α level in medium of J774A.1 cells with or without LPS (Trial B). Format: cell-based, mouse. The method, then:
The increase of cellular ATP can change the activity of macrophage, inhibiting the production of the proinflammatory cytokine, TNF-α, as well as the inflammation. After 15 minutes, 200 ng/ml lipopolysaccharide (LPS) was used to induce the inflammation in the J774A.1 cells of groups B1, B3 and B5. The medium of the J774A.1 cells was collected, and the TNF-α level in the medium was detected by a commercial kit.

The test system of experiment [1] is obese rats. Put plainly: Fasting serum insulin in high fat diet obese rats (Trial D). Format: in vivo, Wistar male rats. Conditions: 1 and 3 ppm propanamide in high fat diet for 4 weeks (groups D2 and D3), fasted 18 hours, 23rd week (FIG. 7). The method, then:
(§1) Wistar male rats were used as the animal model in Trial (D). […] The obese rats of group D1 were then fed by the high fat diet without propanamide for another 4 weeks (total 23 weeks), while the obese rats of group D2 and D3 were fed by the high fat diet respectively containing 1 ppm and 3 ppm propanamide for further 4 weeks, The normal rats of group D0 were fed by normal diet for 23 weeks (total 23 weeks). At the 22th week, the oral glucose tolerance tests (OGTT) were performed as following: the rats of groups D0-D3 were fasted for 18 hours, and then were administered a 20% glucose solution (2 g glucose/kg body weight) by gavage. Blood samples were collected and the glucose concentrations were detected at 0, 30, 60, 90, and 120 minutes after glucose loading. At 23th week, the rats of groups D0-D3 were fasted for 18 hours before scarification, and the serum were analyzed the level of insulin.

The test system of a further experiment is obese mice. Put plainly: Fasting blood glucose in high fat diet obese mice (Trial C). Format: in vivo, Male ICR mice. Conditions: high fat diet containing 3 ppm propanamide for 2 weeks (group C2), fasted 18 hours (FIG. 5). From the text:
Male ICR mice were used as the animal model in Trial (C). […] The obese mice of group C1 were then fed by the high fat diet for another 2 weeks, while the obese mice of group C2 were fed by the high fat diet containing 3 ppm propanamide for further 2 weeks. The normal mice of group C0 were fed by normal diet for 19 weeks. After 19 weeks, the mice of groups C0-C2 were sacrificed, and the effect of propanamide on reducing the accumulation of visceral fat was estimated by weight of epididymal fat (% of body weight). Before being sacrificed, the mice of groups C0-C2 were fasted for 18 hours, and the levels of fasting blood glucose of the mice were measured. Referring to FIG. 5, the levels of fasting blood glucose of the obese mice fed by the high fat diet (group C1) were higher than that of the normal mice fed by the normal diet (group C0).

Experiment [2] deals with obese rats. Briefly: Oral glucose tolerance test (OGTT) in high fat diet obese rats (Trial D). Format: in vivo, Wistar male rats. How it is done: as §1, with “loading.” for “loading. At 23th week, the rats of groups D0-D3 were fasted for 18 hours before scarification, and the serum were analyzed the level of insulin.”
Experiment [3] has as its system mouse macrophage (J774A.1 cell line). Put plainly: ATP level in J774A.1 cells by ATP luminometer (Trial A). Format: cell-based. The method, then:
To evaluate propanamide can increase of ATP synthesis, mouse macrophage (J774A.1 cell line) was used as the cell model. The J774A.1 cells without treatment were used as group A0. ATP level in the J774A.1 cells of groups A0-A5 were analyzed by ATP luminometer, respectively. The unit of ATP level is relative light unit (R.L.U).

In the case of `CCC(N)=O` [propanamide], the “production of TNF-α not induced by LPS” value with TNF-α (propanamide 4 and 40 μM (groups B2 and B4), no LPS (FIG. 3)) is reported as “also inhibit the production of TNF-α”. Moreover, the “production of TNF-α induced by LPS” value in the experiment with TNF-α (propanamide 4 and 40 μM (groups B3 and B5), 200 ng/ml LPS after 15 minutes (FIG. 3)) is recorded as “effectively inhibit the production of TNF-α induced by LPS”. In the experiment on obese rats [1], the fasting serum insulin entry is given as “reduced to normal level”. Besides, the “levels of fasting blood glucose” value in the experiment with obese mice was “decreased significantly”. Further, in the experiment with obese rats [2] (1 and 3 ppm propanamide in high fat diet (groups D2 and D3) (FIG. 6b)), the “area under curve (AUC) of blood glucose in OGTT” value is “decreased significantly”. Also, the “blood glucose during OGTT vs group D1” value in the experiment on obese rats [2] (1 ppm and 3 ppm propanamide in high fat diet (groups D2 and D3), 120 minutes after glucose loading (FIG. 6a)) is recorded as “significantly lower”. Also, the “blood glucose in untreated obese rats (group D1) relative to group D2 during OGTT” value in the experiment on obese rats [2] (1 ppm propanamide in high fat diet (group D2), 90 minutes to 120 minutes after glucose loading (FIG. 6a)) is given as “evidently higher”. In experiment [3] (concentration below 4 μM, 6 hours (FIG. 2)), the “dose dependence of ATP production” value is “dose-dependent response”. For the same molecule, in experiment [3] (propanamide 0.04-400 μM, 6 hours, vs untreated cells (FIG. 2)), the “ATP level in the J774A.1 cells” value is “effectively elevate ATP level”.

Values taken from US10888536B1, “Method of improvement of insulin sensitivity in obese patients” (FOOYIN UNIVERSITY, priority 2019, dated 2021).
